Laboratory results: US20260038304A1, “METHOD AND SYSTEM FOR DETERMINING EFFICACY OF TREATMENT BY A PRE[…]” (priority 2023, published 2026)
Where a name gives a salt, the structure may show the parent alone.

Assays:
Format in all cases: in vivo
[1] = system: larval zebrafish; assay: Ketanserin bath application with or without psilocybin, independent component analysis of swim patterns; conditions: Ketanserin 11.25 μM for 5 hours
Experimental: The right panel of FIG. 4M depicts latent feature (e.g., independent component) analysis of swim patterns after the sham treatment, Ketanserin exposure and psilocybin pretreatment before Ketanserin exposure;
Ketanserin has acute anxiogenic effects in adult zebrafish and rodents.
For Ketanserin experiments (FIG. 4M), the inventors performed a bath application of Ketanserin (11.25 μM) for 5 hours before behavioral tests. Psilocybin (2.5 μM) was added to the solution 1 hour after the start of Ketanserin treatment for a total duration of 4 hours before behavioral tests. Ketanserin (Sigma, S006) was prepared as a 0.5 mg/mL stock solution in E3 medium. Stock solutions were stored at −80° C. for long-term storage, and in-use aliquots were stored at −20° C. The desired concentration of Ketanserin was achieved by adding the stock solution to the E3 medium in which the fish swim.
(§1) For Independent Component Analysis (ICA) (FIGS. 2D, 3G, 4D, 4K and 4L), The inventors identified ICA weights and normalization factors in the dataset of 14,694 swimming episodes from N=22 fish for the small arena and N=20 fish for the large arena (FIG. 1) by using FastICA function in scikit-learn package (https://scikit-learn.org). The inventors subsequently applied the same ICA weights and normalization factors to other datasets. […]

[2] = system: larval zebrafish; assay: Wide-field behavioral tracking of spontaneous exploration and visually driven swimming after drug bath pretreatment; conditions: for spontaneous swimming distance: unstressed fish, ketamine 30 μM bath 30 minutes, fluoxetine 4.6 μM bath 24 hours; for effects of pretreatment on swim patterns: fluoxetine 1 μM to 10 μM, fluvoxamine 2.5 μM to 25 μM, 24 hours incubation; for swim patterns and tail motions during visually driven behaviors: fluoxetine- and fluvoxamine-treated fish vs control, FIG. 3K
Text: Reference is now made to FIG. 1A, which is a schematic diagram depicting an experimental setup, which may be used for evaluating behavior of an animal, according to some embodiments. […] This setup tracks the precise body kinematics of a single fish in an environment that is large (e.g., 90 mm) compared to the length of larval zebrafish (˜4 mm) at a high-resolution (e.g., higher than 1100×1100 pixels) and high-speed (e.g., 290 Hz). Data analysis pipelines further processed the images to identify the fish loci and body postures by using a deep neural network.
Different swim episodes can be visually separated in the depicted trajectories. Fish behavior was recorded at infrared wavelengths for 15 minutes while visual gratings stopped for 10 seconds (spontaneous swimming) and moved for 10 seconds (visually driven behavior) in cycles.
The inventors have used a custom-built zebrafish tracking system consisting of a high-speed camera, a macro lens and associated locking sleeve, an infrared filter for the lens, 880 nm LED illumination, a 100 mm×120 mm cold mirror, and a compact projector.
The inventors have tested the behavior of AB fish at the age of 5 Days Post Fertilization (DPF) on a chemical watch glass (125 mm) whose bottom surface was manually coated with a white spray. The inventors have imaged an area that spanned 90 mm (corresponding to 1100-1200 pixels) for each dimension with a resolution of […] per pixel at 290 Hz. […] Behavioral data presented in this study were acquired using at least three batches, as depicted in FIGS. 1, 2, 3, 4, 1SD, 2H, 2I, 2J, 3L, 4S, for at least two batches (FIG. 3J).
Until 5 DPF, both control and drug-exposed embryos were reared in 90-mm Petri dishes and maintained in a light-cycled incubator at 28.0° C. Media was changed every other day and no food was given before behavioral experiments. All behavioral experiments in this study were performed in E3 medium after washing out pretreated drugs.
Psilocybin solution (Sigma, P-097) was purchased as a stock solution concentration of 1.0 mg/mL in acetonitrile:water (1:1), ampule of 1 mL (3.52 mM). Stock solutions were stored at −80° C. for long-term storage, and in-use aliquots were stored at −20° C. Aliquots were thawed and vortexed immediately before use. Psilocybin was administered by incubating the fish in the psilocybin solution in 6-well plates. Desired concentrations of psilocybin were achieved by adding the stock solution to the E3 medium in which the fish swim. Concentrations ranging from 1 μM to 50 μM were tested in order to optimize the dosage.
The inventors determined that a dose of 2.5 μM for 4 h had the largest effect on spontaneous swimming compared to controls (refer to FIGS. 3E and 3J). Following the 4-hour exposure, fish were double washed in E3 medium, and remained in E3 medium until their behavior was examined. Behaviors were recorded for 15 minutes per fish.
Fluoxetine hydrochloride (Sigma, F918) was prepared as a 1 mg/ml (2.9 mM) stock solution in a conditioned E3 medium for zebrafish embryos. Fluvoxamine (Sigma, F2802) was prepared as a 10 mg/ml (23 mM) stock solution in a conditioned E3 medium. Desired Fluoxetine and Fluvoxamine concentrations were achieved by diluting the stock solution with conditioned E3 medium and storing the aliquots at −20° C. At 5 DPF, the fish were incubated as follows: Fluoxetine and Fluvoxamine were administered by incubating the fish in the solutions in 6-well plates. Desired concentrations of the two types of SSRIs were achieved by adding the stock solutions to the E3 medium in which the fish swim. Concentrations ranging from 1 μM to 10 μM for Fluoxetine and 2.5 μM to 25 μM for Fluvoxamine were tested in order to optimize the dosage. After 24 hours of incubation the fish, after being triple washed, were transferred to a new Petri dish, similar to the one they dwelled in before, containing only E3 medium. Behaviors were recorded at 6 DPF for 15 minutes per fish. […]

[3] = system: larval zebrafish; assay: Acute cold stress exposure (28° C. to 18° C., 5 minutes) after drug pretreatment, swim pattern analysis; conditions: for stress-induced increase in swimming distance: cold shock, fluoxetine 4.6 μM 24 hours before; for stress-induced shift along the ICA2 (IC2) axis, turning/escape behavior: psilocybin 2.5 μM, ketamine 30 μM, fluoxetine 4.6 μM
Text: As known in the art, acute administration of psilocybin has anxiolytic effects in humans. The inventors have thus tested whether acute stress exposure causes changes in fish's swim patterns in our setup and whether psilocybin can prevent such stress-induced behavioral changes. Various environmental stressors have been tested in larval zebrafish that trigger cortisol increase, including hypertonic water, acids, mechanical disturbance, social isolation, and heating or cooling shock.
As shown in FIG. 4I-E, the inventors also tested the effect of hypertonic stress for comparison.
The behavioral effects of other antidepressants was investigated and compared with those of psilocybin. Initially, the effect of ketamine was tested. Ketamine is a fast-acting antidepressant that can also suppress stress-induced behavioral changes in zebrafish. Sub-anesthetic concentration (30 μM) were used and bath application were performed for 30 minutes before the cold shock (FIG. 5A).
The effect of fluoxetine was also tested in the cold shock paradigm, using a concentration of 4.6 μM from previous zebrafish studies, and the effect of bath application was examined for 24 hours before the cold shock (FIG. 5D). […] However, fluoxetine had mixed effects on body kinematics after stress exposure. […] These mixed effects may be due to the induction of distorted swim patterns by fluoxetine that were observed (FIG. 5F, FIG. S3C) but also may reflect its lack of acute anxiolytic effects in humans.
The inventors classified the effects of psilocybin, ketamine and fluoxetine based on two behavioral measures: changes in swimming distances (FIG. 5G) and the ICA analysis of body kinematics (FIG. 5H). In the first type of classification (FIG. 5G), the action of tested drugs was classified based solely on swimming distances. […] Anxiolytic effects were calculated based on how much the drugs could revert the increase of swimming distance induced by stress exposure. In the second type of classification (FIG. 5H), two dimensions identified by the ICA analysis of body kinematics were used. […] Anxiolytic effects were calculated based on how much the drugs could revert the changes along the IC2 axis induced by stress exposure.
Just as osmotic changes to the water cause stress to the fish, changes in water temperature are also known to induce stress. Zebrafish's optimal environment is approximately 28° C., and so it has been shown that a short exposure of 5 minutes to 18° C. leads to increased cortisol levels and anxiety-like behaviors in larval zebrafish. Thus, the inventors utilized this established stress paradigm and exposed the fish to 18° C. E3 medium for 5 minutes. The inventors subsequently returned the fish to 28° C. E3 for a 5-minute recovery before testing (FIG. 4A). 18° C. E3 was achieved by mixing 4° C. E3 with 28° C. E3. Over the course of the 5-minute cold stimulus, the water temperature on average ranged from 18° C. to 20° C. The recovery in 28° C. E3 was done in an incubator, thus the temperature remained stable. Note that these procedures involve multiple occasions of transferring fish and replacing liquid around the fish, which themselves cause stress response due to mechanical disturbances. The effect of such procedural stress was present as the shifts of behavioral states along the IC2 axis in the data presented in FIGS. 4 and S4 compared to other datasets.
as §1

[4] = cold stress, classification of psilocybin, ketamine and fluoxetine

## O=C(c1ccc(F)cc1)C1CCN(CCn2c(=O)[nH]c3ccccc3c2=O)CC1 [Ketanserin]
[1]
  shift of behavioral states by bath application: shifted behavioral states similarly to both cold and hypertonic stressors

## CNC1(c2ccccc2Cl)CCCCC1=O (centres unmarked) [ketamine]
[2]
  spontaneous swimming distance: did not increase
[3]; ketamine 30 μM 30 minutes
  stress-induced increase in swimming distance: reversed
[3]; cold stress, IC2 axis, classification of psilocybin, ketamine and fluoxetine
  reversal of the stress-induced changes in body kinematics (FIG. 5H): only occurred with ketamine and psilocybin
[3]; [4]
  reversal of the stress-induced increases in swim distances (FIG. 5G): only occurred with ketamine and fluoxetine
[3]; cold stress, psilocybin 2.5 μM pretreatment, ketamine 30 μM 30 minutes
  stress-induced changes in swim patterns (zig-zag vs straight) during visually driven swimming: prevented the emergence of zig-zag swim patterns after cold shock and recovered straight swim patterns
[3]; cold stress
  stress-induced shift along the ICA2 (IC2) axis, turning/escape behavior: significantly reversed

## COCCCC/C(=N\OCCN)c1ccc(C(F)(F)F)cc1 [fluvoxamine, Fluvoxamine]
[2]
  effects of pretreatment on swim patterns: suppressive effects
  swim patterns and tail motions during visually driven behaviors: decrease amplitude of tail motions

## CN(C)CCc1c[nH]c2cccc(OP(=O)(O)O)c12 [psilocybin, Psilocybin]
[2]; tested 1 μM to 50 μM, 30 minutes to 24 hours, optimal duration 4 h
  most effective concentration for enhancing spontaneous exploration: 2.5 µM

## CNCCC(Oc1ccc(C(F)(F)F)cc1)c1ccccc1 (centres unmarked) [fluoxetine, Fluoxetine hydrochloride]
[2]
  effects of pretreatment on swim patterns: suppressive effects
  swim patterns and tail motions during visually driven behaviors: noticeable distortions in the swim patterns and low-frequency tail motions
  spontaneous swimming distance: did not increase
[2]; unstressed fish vs control, swimming distance and IC1 axis classifications consistent (FIG. 5G, 5H)
  stimulatory/suppressive effects on basal behavior: suppressive
[3]; ketamine 30 μM 30 minutes
  stress-induced increase in swimming distance: reversed
[3]; [4]
  reversal of the stress-induced increases in swim distances (FIG. 5G): only occurred with ketamine and fluoxetine
[3]; cold stress
  stress-induced shift along the ICA2 (IC2) axis, turning/escape behavior: partially reversed and partially exacerbated
